According to patent US12077503B2, “Substituted cyclic amides and their use as herbicides” (FMC CORPORATION, priority 2015, dated 2024):

What was measured:
Format in all cases: in vivo
[1] = test system: ryegrass, Italian (Italian ryegrass, Lolium multiflorum); assay: Test A preemergence; details: for Plant response rating, Ryegrass, Italian: 125 g ai/ha; for Ryegrass, Italian plant response rating (0 to 100 scale, 0 is no effect, 100 is complete control): 500 g ai/ha, visual injury approx. 10 d
In short: (§1)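 Ratings of 0 (no effect) to 100 (complete control) come from visual comparison with untreated controls roughly 10 d after treatment. Test chemicals, formulated in a non-phytotoxic solvent mixture with surfactant, were applied either as a preemergence directed soil spray on seeded soil or postemergence to one- to two-leaf plants 2 to 10 cm tall.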

Kochia (Kochia scoparia) [2] = assay: Test A preemergence; details: for Plant response rating, Kochia: 125 g ai/ha; for Kochia plant response rating (0 to 100 scale, 0 is no effect, 100 is complete control): 500 g ai/ha, visual injury approx. 10 d
In short: as §1

[3] = test system: barnyardgrass (Echinochloa crus-galli); assay: Test A preemergence; details: for Plant response rating, Barnyardgrass: 125 g ai/ha; for Barnyardgrass plant response rating (0 to 100 scale, 0 is no effect, 100 is complete control): 500 g ai/ha, visual injury approx. 10 d
In short: as §1

[4] = test system: pigweed (Amaranthus retroflexus); assay: Test A preemergence; details: for Plant response rating, Pigweed: 125 g ai/ha; for Pigweed plant response rating (0 to 100 scale, 0 is no effect, 100 is complete control): 500 g ai/ha, visual injury approx. 10 d
[5] = test system: giant foxtail (Setaria faberii); assay: Test A preemergence; details: for Plant response rating, Foxtail, Giant: 125 g ai/ha; for Foxtail, Giant plant response rating (0 to 100 scale, 0 is no effect, 100 is complete control): 500 g ai/ha, visual injury approx. 10 d
In short: as §1

[6] = test system: ragweed (common ragweed, Ambrosia elatior); assay: Test A preemergence; details: for Plant response rating, Ragweed: 125 g ai/ha; for Ragweed plant response rating (0 to 100 scale, 0 is no effect, 100 is complete control): 500 g ai/ha, visual injury approx. 10 d
In short: as §1

[7] = test system: ducksalad (Heteranthera limosa); assay: Test B flooded paddy test; details: Flood, 250 g ai/ha; 0 to 100 scale where 0 is no effect and 100 is complete control; 13 to 15 d
In short: (§2)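 Response scored visually against untreated controls, 0 = no effect and 100 = complete control, 13–15 d after treatment in the greenhouse. Compounds added to paddy water held 3 cm above soil surface. Treatment given at 2-leaf stage.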

[8] = test system: barnyardgrass (Echinochloa crus-galli); assay: Test B flooded paddy test; details: Flood, 250 g ai/ha; 0 to 100 scale where 0 is no effect and 100 is complete control; 13 to 15 d
In short: as §2

[9] = test system: sedge, umbrella (small-flower umbrella sedge, Cyperus difformis); assay: Test B flooded paddy test; details: Flood, 250 g ai/ha; 0 to 100 scale where 0 is no effect and 100 is complete control; 13 to 15 d
In short: as §2

rice (Oryra sativa) = assay: Test B flooded paddy test; details: Flood, 250 g ai/ha; 0 to 100 scale where 0 is no effect and 100 is complete control; 13 to 15 d
In short: as §2

[10] = test system: wheat (Triticum aestivum); assay: Test A postemergence; details: for Wheat plant response rating: 125 g ai/ha, visual injury rating on 0 to 100 scale (0 no effect, 100 complete control), approx. 10 d; for Plant response rating, Wheat: 500 g ai/ha
In short: as §1

[11] = test system: blackgrass (Alopecurus myosuroides); assay: Test A postemergence; details: for Blackgrass plant response rating: 125 g ai/ha, visual injury rating on 0 to 100 scale (0 no effect, 100 complete control), approx. 10 d; for Plant response rating, Blackgrass: 500 g ai/ha
In short: as §1

[12] = test system: ryegrass, Italian (Italian ryegrass, Lolium multiflorum); assay: Test A postemergence; details: for Ryegrass, Italian plant response rating: 125 g ai/ha, visual injury rating on 0 to 100 scale (0 no effect, 100 complete control), approx. 10 d; for Plant response rating, Ryegrass, Italian: 500 g ai/ha
In short: as §1

[13] = test system: Galium (catchweed bedstraw, Galium aparine); assay: Test A postemergence; details: for Galium plant response rating: 125 g ai/ha, visual injury rating on 0 to 100 scale (0 no effect, 100 complete control), approx. 10 d; for Plant response rating, Galium: 500 g ai/ha
In short: as §1

Kochia (Kochia scoparia) [14] = assay: Test A postemergence; details: for Kochia plant response rating: 125 g ai/ha, visual injury rating on 0 to 100 scale (0 no effect, 100 complete control), approx. 10 d; for Plant response rating, Kochia: 500 g ai/ha
In short: as §1

[15] = test system: barnyardgrass (Echinochloa crus-galli); assay: Test A postemergence; details: for Barnyardgrass plant response rating: 125 g ai/ha, visual injury rating on 0 to 100 scale (0 no effect, 100 complete control), approx. 10 d; for Plant response rating, Barnyardgrass: 500 g ai/ha
In short: as §1

[16] = test system: pigweed (Amaranthus retroflexus); assay: Test A postemergence; details: for Pigweed plant response rating: 125 g ai/ha, visual injury rating on 0 to 100 scale (0 no effect, 100 complete control), approx. 10 d; for Plant response rating, Pigweed: 500 g ai/ha
In short: as §1

corn (Zea mays) = assay: Test A postemergence; details: for Corn plant response rating: 125 g ai/ha, visual injury rating on 0 to 100 scale (0 no effect, 100 complete control), approx. 10 d; for Plant response rating, Corn: 500 g ai/ha
In short: as §1

[17] = test system: giant foxtail (Setaria faberii); assay: Test A postemergence; details: for Foxtail, Giant plant response rating: 125 g ai/ha, visual injury rating on 0 to 100 scale (0 no effect, 100 complete control), approx. 10 d; for Plant response rating, Foxtail, Giant: 500 g ai/ha
In short: as §1

[18] = test system: ragweed (common ragweed, Ambrosia elatior); assay: Test A postemergence; details: for Ragweed plant response rating: 125 g ai/ha, visual injury rating on 0 to 100 scale (0 no effect, 100 complete control), approx. 10 d; for Plant response rating, Ragweed: 500 g ai/ha
In short: as §1

[19] = test system: nutsedge, yellow (yellow nutsedge, Cyperus esculentus); assay: Test C preemergence; details: for Plant response rating, Nutsedge, Yellow: scale 0 to 100, 0 no effect, 100 complete control
In short: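 Visual 0 (no effect) to 100 (complete control) ratings versus controls, taken 13–15 d after treatment in the greenhouse; dash means no result. Compounds in a surfactant-containing non-phytotoxic solvent blend were applied preemergence to seeds in loam-sand soil or postemergence to 1- to 4-leaf plants (2–18 cm) in peat-based medium.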

[20] = preemergence, 0 to 100 scale (0 no effect, 100 complete control)
[21] = postemergence, 0 to 100 scale, 0 no effect, 100 complete control
[22] = Preemergence, visual injury after approximately 10 d, 0 to 100 scale where 0 is no effect and 100 is complete control
[23] = Postemergence, 0 to 100 scale where 0 is no effect and 100 is complete control

## CN1CC(c2cccc(OC(F)(F)C(F)F)c2)C(C(=O)Nc2ccccc2C(F)(F)F)C1=O (centres unmarked) [Compound 431]
[1]; [20]
  Plant response rating, Ryegrass, Italian: 70
[1]; Preemergence
  Ryegrass, Italian plant response rating (0 to 100 scale, 0 is no effect, 100 is complete control): 70
Kochia (Kochia scoparia) [2]; [20]
  Plant response rating, Kochia: 30
Kochia (Kochia scoparia) [2]; Preemergence
  Kochia plant response rating (0 to 100 scale, 0 is no effect, 100 is complete control): 70
[3]; [20]
  Plant response rating, Barnyardgrass: 90
[3]; Preemergence
  Barnyardgrass plant response rating (0 to 100 scale, 0 is no effect, 100 is complete control): 90
[4]; [20]
  Plant response rating, Pigweed: 70
[4]; Preemergence
  Pigweed plant response rating (0 to 100 scale, 0 is no effect, 100 is complete control): 90
[5]; [20]
  Plant response rating, Foxtail, Giant: 90
[5]; Preemergence
  Foxtail, Giant plant response rating (0 to 100 scale, 0 is no effect, 100 is complete control): 100
[6]; [20]
  Plant response rating, Ragweed: 40
[6]; Preemergence
  Ragweed plant response rating (0 to 100 scale, 0 is no effect, 100 is complete control): 70
[7]
  Plant response rating, Ducksalad: 100
[8]
  Plant response rating, Barnyardgrass: 40
[9]
  Plant response rating, Sedge, Umbrella: 0
Rice (Oryra sativa)
  Plant response rating, Rice: 25
[10]; postemergence
  Wheat plant response rating: 40
[10]; [21]
  Plant response rating, Wheat: 60
[11]; postemergence
  Blackgrass plant response rating: 60
[11]; [21]
  Plant response rating, Blackgrass: 60
[12]; postemergence
  Ryegrass, Italian plant response rating: 60
[12]; [21]
  Plant response rating, Ryegrass, Italian: 40
[13]; postemergence
  Galium plant response rating: 60
[13]; [21]
  Plant response rating, Galium: 60
Kochia (Kochia scoparia) [14]; postemergence
  Kochia plant response rating: 40
Kochia (Kochia scoparia) [14]; [21]
  Plant response rating, Kochia: 50
[15]; postemergence
  Barnyardgrass plant response rating: 80
[15]; [21]
  Plant response rating, Barnyardgrass: 90
[16]; postemergence
  Pigweed plant response rating: 50
[16]; [21]
  Plant response rating, Pigweed: 60
Corn (Zea mays); postemergence
  Corn plant response rating: 60
Corn (Zea mays); [21]
  Plant response rating, Corn: 70
[17]; postemergence
  Foxtail, Giant plant response rating: 80
[17]; [21]
  Plant response rating, Foxtail, Giant: 90
[18]; postemergence
  Ragweed plant response rating: 20
[18]; [21]
  Plant response rating, Ragweed: 60
[19]; 31 g ai/ha
  Plant response rating, Nutsedge, Yellow: 0
[19]; 62 g ai/ha
  Plant response rating, Nutsedge, Yellow: 0
[19]; 125 g ai/ha
  Plant response rating, Nutsedge, Yellow: 0
[19]; 250 g ai/ha
  Plant response rating, Nutsedge, Yellow: 0

## O=C1NCC(c2cc(F)cc(C(F)(F)F)c2)C1C(=O)Nc1cccc(F)c1F (centres unmarked) [Compound 488]
[1]; [22]
  Plant response rating, Ryegrass, Italian: 30
[1]; Preemergence
  Ryegrass, Italian plant response rating (0 to 100 scale, 0 is no effect, 100 is complete control): 70
Kochia (Kochia scoparia) [2]; [22]
  Plant response rating, Kochia: 70
Kochia (Kochia scoparia) [2]; Preemergence
  Kochia plant response rating (0 to 100 scale, 0 is no effect, 100 is complete control): 70
[3]; [22]
  Plant response rating, Barnyardgrass: 90
[3]; Preemergence
  Barnyardgrass plant response rating (0 to 100 scale, 0 is no effect, 100 is complete control): 90
[4]; [22]
  Plant response rating, Pigweed: 50
[4]; Preemergence
  Pigweed plant response rating (0 to 100 scale, 0 is no effect, 100 is complete control): 70
[5]; [22]
  Plant response rating, Foxtail, Giant: 90
[5]; Preemergence
  Foxtail, Giant plant response rating (0 to 100 scale, 0 is no effect, 100 is complete control): 90
[6]; [22]
  Plant response rating, Ragweed: 70
[6]; Preemergence
  Ragweed plant response rating (0 to 100 scale, 0 is no effect, 100 is complete control): 80
[7]
  Plant response rating, Ducksalad: 90
[8]
  Plant response rating, Barnyardgrass: 65
[9]
  Plant response rating, Sedge, Umbrella: 0
Rice (Oryra sativa)
  Plant response rating, Rice: 30
[10]; postemergence
  Wheat plant response rating: 50
[10]; [23]
  Plant response rating, Wheat: 60
[11]; postemergence
  Blackgrass plant response rating: 60
[11]; [23]
  Plant response rating, Blackgrass: 70
[12]; postemergence
  Ryegrass, Italian plant response rating: 30
[12]; [23]
  Plant response rating, Ryegrass, Italian: 60
[13]; postemergence
  Galium plant response rating: 50
[13]; [23]
  Plant response rating, Galium: 50
Kochia (Kochia scoparia) [14]; postemergence
  Kochia plant response rating: 30
Kochia (Kochia scoparia) [14]; [23]
  Plant response rating, Kochia: 60
[15]; postemergence
  Barnyardgrass plant response rating: 90
[15]; [23]
  Plant response rating, Barnyardgrass: 90
[16]; postemergence
  Pigweed plant response rating: 40
[16]; [23]
  Plant response rating, Pigweed: 50
Corn (Zea mays); postemergence
  Corn plant response rating: 70
Corn (Zea mays); [23]
  Plant response rating, Corn: 80
[17]; postemergence
  Foxtail, Giant plant response rating: 90
[17]; [23]
  Plant response rating, Foxtail, Giant: 90
[18]; postemergence
  Ragweed plant response rating: 20
[18]; [23]
  Plant response rating, Ragweed: 20
[19]; 31 g ai/ha, 0 is no effect, 100 is complete control
  Plant response rating (scale of 0 to 100), Nutsedge, Yellow: 0
[19]; 62 g ai/ha
  Plant response rating, Nutsedge, Yellow: 0
[19]; 125 g ai/ha
  Plant response rating, Nutsedge, Yellow: 0
[19]; 250 g ai/ha
  Plant response rating, Nutsedge, Yellow: 0
